Source: ChEMBL document CHEMBL1201862, “PubChem BioAssay data set” (2004)
The source made the active and inactive calls. Rule as the data show it: actives have a measured IC50 and inactives only a lower limit.

Molecular target: Envelope glycoprotein gp160 (Human immunodeficiency virus 1, UniProt Q6QLK5)
Experiment: cell-free HIV fusion peptide-binding blockers – biochemical, uHTS, fluorescence dequenching, […] (AID 1986)

Chain of Envelope glycoprotein gp160 (Q6QLK5 whole entry, the tested form may be a part): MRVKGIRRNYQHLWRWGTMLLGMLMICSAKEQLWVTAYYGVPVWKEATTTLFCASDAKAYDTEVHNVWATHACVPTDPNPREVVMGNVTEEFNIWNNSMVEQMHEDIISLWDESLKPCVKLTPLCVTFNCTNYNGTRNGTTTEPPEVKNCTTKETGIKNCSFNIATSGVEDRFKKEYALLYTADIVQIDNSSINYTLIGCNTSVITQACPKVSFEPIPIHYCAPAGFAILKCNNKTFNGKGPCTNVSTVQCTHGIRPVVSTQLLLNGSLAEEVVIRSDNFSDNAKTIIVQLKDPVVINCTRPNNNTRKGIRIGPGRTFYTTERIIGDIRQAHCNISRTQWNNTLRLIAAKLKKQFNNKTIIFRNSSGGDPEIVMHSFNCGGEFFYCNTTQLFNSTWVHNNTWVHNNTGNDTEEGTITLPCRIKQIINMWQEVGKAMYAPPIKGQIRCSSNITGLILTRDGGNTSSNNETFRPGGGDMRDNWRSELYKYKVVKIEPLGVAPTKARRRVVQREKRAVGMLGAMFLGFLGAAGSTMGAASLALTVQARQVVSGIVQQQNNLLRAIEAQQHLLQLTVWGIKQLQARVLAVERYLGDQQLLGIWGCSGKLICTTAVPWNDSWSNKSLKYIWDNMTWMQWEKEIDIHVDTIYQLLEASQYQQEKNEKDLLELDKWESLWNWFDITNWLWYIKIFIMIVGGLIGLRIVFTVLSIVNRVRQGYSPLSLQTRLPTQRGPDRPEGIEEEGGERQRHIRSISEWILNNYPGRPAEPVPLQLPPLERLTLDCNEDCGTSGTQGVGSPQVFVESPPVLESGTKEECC

Row | Structure (SMILES) | IC50
1 | Cc1ccc(S(=O)(=O)NC2=NC(=O)/C(=C/c3cc([N+](=O)[O-])ccc3O)S2)cc1 | 13.5 µM (active)
2 | O=C(Nc1ccc(Br)cc1C(=O)O)c1ccc2c(c1)C(=O)N(Cc1ccccc1)C2=O | 13.5 µM (active)
3 | CCc1nnc(NS(=O)(=O)c2ccc(N/C=C(\C=O)c3nc4cc(Cl)ccc4o3)cc2)s1 | 19.7 µM (active)
4 | Cc1cc(/C=c2\sc3nc4ccccc4n3c2=O)c(C)n1-c1ccc(C(=O)O)cc1 | 25.8 µM (active)
